Results on four compounds are retold here after patent EP2199292A1, “7-azaindirubins, 7'-azaindirubins, 7-7'-diazaindirubin and the corresponding 3'-oxime ether derivates: production thereof, their production and use as a medicament” (Technische Universität Kaiserslautern, priority 2008, dated 2010).

Molecules are shown by their SMILES. Where two headings read alike, the source gives them in different places. A value given as a limit tells only on which side of the number the result lay.

Test [1] concerns murine C6 glioblastoma cells. The following applies: compared with parent compound 5-methylindirubin; WO 03/070703; cited from earlier work.
A further test has as its system human cancer cell lines. The experiment in a line: Antiproliferative activity against human cancer cell lines, compared with indirubin. The class given is cell-based. The following applies: as compared to the parent molecule. The procedure: (§1) The antiproliferative activity was determined using the Sulforhodamin B assay (SRB assay) as reported previously (Vatter et al. 2005, Int. J. Clin. Pharmacal.Ther. 43, 607). Table 1: Inhibition of tumor cell proliferation, SRB assay.

For a further test, the system named is MCF7. The experiment in a line: Inhibition of tumor cell proliferation, Sulforhodamin B assay (SRB assay), MCF7. Type of test: cell-based. The following applies: Homo sapiens. As for the experimental part: as §1
In general terms: The SRB assay estimates cell density from bound dye.

In the next test the test system is HT29. The experiment in a line: Inhibition of tumor cell proliferation, Sulforhodamin B assay (SRB assay), HT29. The class given is cell-based. Conditions: Homo sapiens, HT-29. The procedure: as §1

As to `Cc1cc2c(cc1O)NC(=O)C2=C1Nc2ccccc2C1=O`, the “inhibition of murine C6 glioblastoma cells” value in test [1] is “as effective as the parent compound”. For the compound `O=C1Nc2ccccc2C1=C1Nc2ncccc2C1=O` [E843, 7'-Azaindirubin], the antiproliferative activity result in the test with human cancer cell lines is given as “markedly augmented”.

For the compound `O=C1Nc2ncccc2C1=C1Nc2ncccc2C1=O` [E864, 7,7'-Diazaindirubin], the IC50 in the test with MCF7 (MCF7, MCF-7 breast cancer cells, IC50 values ranging down to, read-out: inhibition of proliferation IC50) is at least 2 nM; in the test on MCF7 (MCF7, SRB assay, read-out: Inhibition of cell proliferation IC50), 7 nM; with HT29 (HT29, SRB assay, read-out: Inhibition of cell proliferation IC50) it was 5 nM; with HT29 (HT29 colon tumor cells, IC50 values ranging down to, read-out: inhibition of proliferation IC50), at least 2 nM. On to `O=C1Nc2ncccc2/C1=C1/Nc2ccccc2C1=O` [Example 12, 7-Azaindirubin], for which, in the test on human cancer cell lines, the antiproliferative activity result is “markedly augmented”.
